Laboratory results: ChEMBL document CHEMBL1201862, “PubChem BioAssay data set” (2004)
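Each compound was tested at five concentrations against cells in 96-well plates for 48 hours. Abbreviation: GI50, concentration required for 50% inhibition of growth.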 The source made the active and inactive calls. Rule as the data show it: active = GI50 up to about 1.1 µM and inactive = higher.

Experiments:
Assay in all cases: NCI anticancer screen, dose series, 48 h
CAKI-1 = test system: CAKI-1
HCC 2998 = test system: HCC 2998
SN12C = test system: SN12C
A549 = test system: A549
RPMI-8226 = test system: RPMI-8226
SNB-19 = test system: SNB-19
SF-295 = test system: SF-295
HOP-62 = test system: HOP-62
OVCAR-4 = test system: OVCAR-4
SF-539 = test system: SF-539
HT-29 = test system: HT-29
NCI/ADR-RES = test system: NCI/ADR-RES
COLO 205 = test system: COLO 205
SK-MEL-5 = test system: SK-MEL-5
OVCAR-5 = test system: OVCAR-5
HCT-116 = test system: HCT-116
OVCAR-8 = test system: OVCAR-8
U-251 = test system: U-251
MDA-N = test system: MDA-N
NCI-H522 = test system: NCI-H522

SMILES | GI50 (CAKI-1) | GI50 (HCC 2998) | GI50 (SN12C) | GI50 (A549) | GI50 (RPMI-8226) | GI50 (SNB-19) | GI50 (SF-295) | GI50 (HOP-62) | GI50 (OVCAR-4) | GI50 (SF-539) | GI50 (HT-29) | GI50 (NCI/ADR-RES) | GI50 (COLO 205) | GI50 (SK-MEL-5) | GI50 (OVCAR-5) | GI50 (HCT-116) | GI50 (OVCAR-8) | GI50 (U-251) | GI50 (MDA-N) | GI50 (NCI-H522)
CC(=O)OCC1OC(n2c(S)nc(-c3ccccc3)c(C#N)c2=O)C(OC(C)=O)C(OC(C)=O)C1OC(C)=O (stereo not given) | > 100 µM (inactive) | > 100 µM (inactive) | > 100 µM (inactive) | > 100 µM (inactive) | > 100 µM (inactive) | > 100 µM (inactive) | > 100 µM (inactive) | > 100 µM (inactive) | > 100 µM (inactive) | > 100 µM (inactive) | > 100 µM (inactive) | > 100 µM (inactive) | > 100 µM (inactive) | > 100 µM (inactive) | > 100 µM (inactive) | > 100 µM (inactive) | > 100 µM (inactive) | > 100 µM (inactive) | > 100 µM (inactive) | > 100 µM (inactive)
CCOCC(=O)N[C@H]1CCc2cc(OC)c(OC)c(OC)c2-c2ccc(SC)c(=O)cc21 | < 0.01 µM (active) | < 0.01 µM (active) | < 0.01 µM (active) | < 0.01 µM (active) | < 0.01 µM (active) | < 0.01 µM (active) | < 0.01 µM (active) | < 0.01 µM (active) | 3.97 µM (inactive) | < 0.01 µM (active) | < 0.01 µM (active) | 0.0159 µM (active) | < 0.01 µM (active) | < 0.01 µM (active) | 0.398 µM (active) | < 0.01 µM (active) | < 0.01 µM (active) | < 0.01 µM (active) | < 0.01 µM (active) | < 0.01 µM (active)
N#Cc1c(O)c(C=O)c(=O)n2c1[nH]c1ccccc12 | > 100 µM (inactive) | > 100 µM (inactive) | > 100 µM (inactive) | > 100 µM (inactive) | > 100 µM (inactive) | > 100 µM (inactive) | > 100 µM (inactive) | > 100 µM (inactive) | > 100 µM (inactive) | > 100 µM (inactive) | > 100 µM (inactive) | > 100 µM (inactive) | > 100 µM (inactive) | > 100 µM (inactive) | > 100 µM (inactive) | > 100 µM (inactive) | > 100 µM (inactive) | > 100 µM (inactive) | > 100 µM (inactive) | > 100 µM (inactive)
C#CCN(Cc1ccc2nc(OC)c(OC)nc2c1)c1cc(OC)c(OC)c(OC)c1 | 24.2 µM (inactive) | 35.1 µM (inactive) | 18.2 µM (inactive) | 18.4 µM (inactive) | 5.6 µM (inactive) | 26.6 µM (inactive) | 16.3 µM (inactive) | 22.9 µM (inactive) | 13.4 µM (inactive) | 18.5 µM (inactive) | 21.8 µM (inactive) | 10.7 µM (inactive) | 17.4 µM (inactive) | 7.82 µM (inactive) | 40.2 µM (inactive) | 16.7 µM (inactive) | 20.7 µM (inactive) | 23.9 µM (inactive) | 7.31 µM (inactive) | 9.44 µM (inactive)
